Results from patent US6548096B1, “Aspartyl dipeptide ester derivatives and sweeteners” (Ajinomoto Co., Inc., priority 1998, dated 2003).
Where two headings read alike, the source gives them in different places.

Tests used:
[1] = Sensory evaluation of sweetening potency relative to sugar; type: in vivo; settings: for sweetening potency: Relative to sweetening potency of a 4% sucrose aqueous solution; for Sweetening potency (relative to sugar): times that of sugar, sensory evaluation
Excerpt: For example, the sweetening potency of N-[N-[3(3-methyl-4-hydroxyphenyl)propyl]-L-α-aspartyl]-L-phenylalanine 1-methyl ester was approximately 35,000 times that of sugar; that of N-[N-[3-(2-hydroxy-4-methylphenyl)propyl]-L-α-aspartyl]-L-α-phenylalanine 1-methyl ester was approximately 30,000 times that of sugar; that of N-[N-[3-(3-hydroxy-4-methoxyphenyl)propyl]-L-α-aspartyl]-L-phenylalanine 1-methyl ester was approximately 20,000 times that of sugar; that of N-[N-[3-(2-hydroxy-4-methoxyphenyl)propyl]-L-α-aspartyl]-L-phenylalanine 1-methyl ester was approximately 20,000 times that of sugar; that of N-[N-[3-(3-hydroxy-4-methylphenyl)propyl]-L-α-aspartyl]-L-phenylalanine 1-methyl ester was approximately 15,000 times that of sugar; that of N-(N-(3-(3-hydroxyphenyl)propyl]-L-α-aspartyl]-L-phenylalanine 1-methyl ester was approximately 8,000 times that of sugar; that of N-[N-(3-(4-methoxyphenyl)propyl]-L-α-aspartyl]-L-phenylalanine 1-methyl ester was approximately 6,500 times that of sugar; and that of N-(N-[3-(3-hydroxy-4-methoxyphenyl)propyl]-L-α-aspartyl]-L-tyrosine 1-methyl ester was approximately 16,000 times that of sugar.
The structures and the results of the sensory evaluation of aspartyl dipeptide derivatives represented by formula (2) are shown in Table 1. [drawing 3]

[2] = as reported in WO 94/11391 (U.S. Pat. No. 5,480,668); cited from earlier work

SMILES	sweetening potency [1]	Sweetening potency (relative to sugar) [1]	also measured
COC(=O)[C@H](Cc1ccccc1)NC(=O)[C@H](CC(=O)O)NCCCc1ccc(OC)cc1OC [Compound 14, N-[N-[3-(2,4-dimethoxyphenyl)propyl]-L-α-aspartyl]-L-phenylalanine 1-methyl ester]	4000	4,000 times	
COC(=O)[C@H](Cc1ccccc1)NC(=O)[C@H](CC(=O)O)NCCCc1ccc(C)c(O)c1		approximately 15,000 times	
COC(=O)[C@H](Cc1ccccc1)NC(=O)[C@H](CC(=O)O)NCCCc1ccc(OC)c(C)c1 [Compound 18, N-[N-[3-(3-methyl-4-methoxyphenyl)propyl]-L-α-aspartyl]-L-phenylalanine 1-methyl ester]	8000	8,000 times	
COC(=O)[C@H](Cc1ccccc1)NC(=O)[C@H](CC(=O)O)NCCCc1ccc(OCCO)cc1 [Compound 20, N-[N-[3-(4-(2-Hydroxyethoxy)phenyl)propyl]-L-α-aspartyl]-L-phenylalanine 1-Methyl Ester]	1000	1,000 times	
COC(=O)[C@H](Cc1ccccc1)NC(=O)[C@H](CC(=O)O)NCCCc1ccc(O)c(C)c1 [Compound 16, N-[N-[3-(3-methyl-4-hydroxyphenyl)propyl]-L-α-aspartyl]-L-phenylalanine 1-methyl ester]	35000	approximately 35,000 times	Sweetening potency (relative to sugar) ([1]; listed as Example 17): 35,000 times
COC(=O)[C@H](Cc1ccccc1)NC(=O)[C@H](CC(=O)O)NCCCc1ccc(OC)c(O)c1		approximately 20,000 times	
COC(=O)[C@H](Cc1ccccc1)NC(=O)[C@H](CC(=O)O)NCCCc1ccc(C)cc1 [Compound 21, N-[N-[3-(4-Methylphenyl)propyl]-L-α-aspartyl]-L-phenylalanine 1-Methyl Ester]	4000	4,000 times	
CCOc1cc(OC)ccc1CCCN[C@@H](CC(=O)O)C(=O)N[C@@H](Cc1ccccc1)C(=O)OC [Compound 15, N-[N-[3-(2-Ethoxy-4-methoxyphenyl)propyl]-L-α-aspartyl]-L-phenylalanine 1-Methyl Ester]	2500	2,500 times	
COC(=O)[C@H](Cc1ccccc1)NC(=O)[C@H](CC(=O)O)NCCCc1cc(OC)ccc1O [Compound 12, N-[N-[3-(2-hydroxy-5-methoxyphenyl)propyl]-L-α-aspartyl]-L-phenylalanine 1-methyl ester]	1500	1,500 times	
CCOc1ccc(CCCN[C@@H](CC(=O)O)C(=O)N[C@@H](Cc2ccccc2)C(=O)OC)cc1 [Compound 6, N-[N-[3-(4-Ethoxyphenyl)propyl]-L-α-aspartyl]-L-phenylalanine 1-Methyl Ester]	1500	1,500 times	
COC(=O)[C@H](Cc1ccccc1)NC(=O)[C@H](CC(=O)O)NCCCc1cc(OC)cc(OC)c1 [Compound 19, N-[N-[3-(3,5-dimethoxyphenyl)propyl]-L-α-aspartyl]-L-phenylalanine 1-methyl ester]	800	800 times	
COC(=O)[C@H](Cc1ccccc1)NC(=O)[C@H](CC(=O)O)NCCCc1ccc(OC)c(OC)c1 [Compound 2, N-[N-[3-(3,4-dimethoxyphenyl)propyl]-L-α-aspartyl]-L-phenylalanine 1-methyl ester]	2500	2,500 times	
COC(=O)[C@H](Cc1ccccc1)NC(=O)[C@H](CC(=O)O)NCCCc1cccc(O)c1 [Compound 7, N-[N-[3-(3-hydroxyphenyl)propyl]-L-α-aspartyl]-L-phenylalanine 1-methyl ester]	8000	approximately 8,000 times	Sweetening potency (relative to sugar) ([1]; listed as Example 8): 8,000 times
COC(=O)[C@H](Cc1ccccc1)NC(=O)[C@H](CC(=O)O)NCCCc1ccc(OC)cc1O		approximately 20,000 times	
COC(=O)[C@H](Cc1ccccc1)NC(=O)[C@H](CC(=O)O)NCCCc1ccc2c(c1)OCO2 [Compound 3, N-[N-[3-(3,4-methylenedioxyphenyl)propyl]-L-α-aspartyl]-L-phenylalanine 1-methyl ester]	5000	5,000 times	
COC(=O)[C@H](Cc1ccccc1)NC(=O)[C@H](CC(=O)O)NCCCc1cccc(OC)c1O [Compound 11, N-[N-[3-(2-hydroxy-3-methoxyphenyl)propyl]-L-α-aspartyl]-L-phenylalanine 1-methyl ester]	10000	10,000 times	
COC(=O)[C@H](Cc1ccccc1)NC(=O)[C@H](CC(=O)O)NCCCc1ccc(C)c(O)c1 [Compound 17, N-[N-[3-(3-hydroxy-4-methylphenyl)propyl]-L-α-aspartyl]-L-phenylalanine 1-methyl ester]	15000		Sweetening potency (relative to sugar) ([1]; listed as Example 18): 15,000 times
COC(=O)[C@H](Cc1ccccc1)NC(=O)[C@H](CC(=O)O)NCCCc1ccc(OC)cc1O [Compound 10, N-[N-[3-(2-hydroxy-4-methoxyphenyl)propyl]-L-α-aspartyl]-L-phenylalanine 1-methyl ester]	20000		Sweetening potency (relative to sugar) ([1]; listed as Example 11): 20,000 times
COC(=O)[C@H](Cc1ccccc1)NC(=O)[C@H](CC(=O)O)NCCCc1cccc(OC)c1 [Compound 8, N-[N-[3-(3-Methoxyphenyl)propyl]-L-α-aspartyl]-L-phenylalanine 1-Methyl Ester]	3500	3,500 times	
COC(=O)[C@H](Cc1ccccc1)NC(=O)[C@H](CC(=O)O)NCCCc1ccc(C)cc1O [Compound 13, N-[N-[3-(2-hydroxy-4-methylphenyl)propyl]-L-α-aspartyl]-L-phenylalanine 1-methyl ester]	30000		Sweetening potency (relative to sugar) ([1]; listed as Example 14): 30,000 times; Sweetening potency (relative to sugar) ([1]; listed as N-[N-[3-(2-hydroxy-4-methylphenyl)propyl]-L-α-aspartyl]-L-α-phenylalanine 1-meth): approximately 30,000 times
COC(=O)[C@H](Cc1ccccc1)NC(=O)[C@H](CC(=O)O)NCCCc1ccc(O)cc1 [Compound 4, N-[N-[3-(4-hydroxyphenyl)propyl]-L-α-aspartyl]-L-phenylalanine 1-methyl ester]	5000	5,000 times	
COC(=O)[C@H](Cc1ccccc1)NC(=O)[C@H](CC(=O)O)NCCCc1ccccc1 [N-[N-(3-phenylpropyl)-L-α-aspartyl]-L-phenylalanine-1-methyl ester]			sweetening potency [2]: 1,500 times that of sugar
COC(=O)[C@H](Cc1ccccc1)NC(=O)[C@H](CC(=O)O)NCCCc1ccc(O)c(OC)c1 [N-[N-[3-(3-methoxy-4-hydroxyphenyl)propyl]-L-α-aspartyl]-L-phenylalanine 1-methyl ester]			sweetening potency [2]: 2,500 times that of sugar
COC(=O)[C@H](Cc1ccccc1)NC(=O)[C@H](CC(=O)O)NCCCc1ccc(OC)c(O)c1 [Compound 1, N-[N-[3-(3-hydroxy-4-methoxyphenyl)propyl]-L-α-aspartyl]-L-phenylalanine 1-methyl ester]	20000		Sweetening potency (relative to sugar) ([1]; listed as Example 1): 20,000 times
COC(=O)[C@H](Cc1ccc(O)cc1)NC(=O)[C@H](CC(=O)O)NCCCc1ccc(OC)c(O)c1 [Compound 9, N-[N-[3-(3-hydroxy-4-methoxyphenyl)propyl]-L-α-aspartyl]-L-tyrosine 1-methyl ester]	16000	approximately 16,000 times	Sweetening potency (relative to sugar) ([1]; listed as Example 10): 16,000 times
COC(=O)[C@H](Cc1ccccc1)NC(=O)[C@H](CC(=O)O)NCCC(C)(C)C [N-[N-(3,3-dimethylbutyl)-L-α-aspartyl]-L-phenylalanine 1-methyl ester]			sweetening potency [2]: 10,000 times that of sugar
COC(=O)[C@H](Cc1ccccc1)NC(=O)[C@H](CC(=O)O)NCCCc1ccc(OC)cc1 [Compound 5, N-[N-[3-(4-methoxyphenyl)propyl]-L-α-aspartyl]-L-phenylalanine 1-methyl ester]	6500		Sweetening potency (relative to sugar) ([1]; listed as Example 5): 6,500 times; Sweetening potency (relative to sugar) ([1]; listed as N-[N-(3-(4-methoxyphenyl)propyl]-L-α-aspartyl]-L-phenylalanine 1-methyl ester)): approximately 6,500 times
